A short description of this data set: in vitro. The conditions noted are these: PAMPA, pH 7.4. (In PAMPA a lipid-coated filter parts donor from acceptor wells.)

As a reminder, the Papp is a coefficient for how fast a substance crosses the barrier. The compound `Cn1c(=O)c2c(ncn2C)n(C)c1=O` [CAFFEINE] gave a Papp at 5 h of 91.3 nm/s. On to `CCN1CCCC1CNC(=O)c1cc(S(N)(=O)=O)ccc1OC` (configuration not stated) [SULPIRIDE], for which the apparent permeability (Papp) at 5 h came out at 0.06 nm/s.

The record behind these values is ChEMBL document CHEMBL5360565, “Discovery of novel arylpiperazine-based DA/5-HT modulators as potential antipsychotic agents - Design, synthesis, structural studies and pharmacological profiling” (Eur J Med Chem, 2023).
